What is called pEC50 is the negative decadic logarithm of the EC50, by convention in mol/L.

pEC50: −log10 of the molar value.

Experimental findings from patent publication US6906097B2, “8-azaprostaglandin analogs as agents for lowering intraocular pressure” (Allergan, Inc., priority 2002, dated 2005) are described below.

This assay addresses T1, hEP4 (Homo sapiens, UniProt P35408).
T1 construct: expressed in transfected cells
The experiment in a line: Functional data, human recombinant EP4 receptor stable transfectants. In kind it is cell-based. The method, then:
Human Recombinant EP1, EP2, EP3, EP4, FP, TP, IP and DP Receptors: Stable Transfectants
Plasmids encoding the human EP1, EP2, EP3, EP4, FP, TP, IP and DP receptors were prepared by cloning the respective coding sequences into the eukaryotic expression vector pCEP4 (Invitrogen). The pCEP4 vector contains an Epstein Barr virus (EBV) origin of replication, which permits episomal replication in primate cell lines expressing EBV nuclear antigen (EBNA-1). It also contains a hygromycin resistance gene that is used for eukaryotic selection. […] HEK-293 cells were grown in DMEM with 10% fetal bovine serum (FBS), 250 μg ml^−1 G418 (Life Technologies) and 200 μg ml^−1 gentamicin or penicillin/streptomycin.
For transfection, the cells were grown to 50-60% confluency on 10 cm plates. The plasmid pCEP4 incorporating cDNA inserts for the respective human prostanoid receptor (20 μg) was added to 500 μl of 250 mM CaCl2. […] After 30 min, 9 ml DMEM were added to the mixture. The DNA/DMEM/calcium phosphate mixture was then added to the cells, which had been previously rinsed with 10 ml PBS. The cells were then incubated for 5 hr at 37° C. in humidified 95% air/5% CO2. The calcium phosphate solution was then removed and the cells were treated with 10% glycerol in DMEM for 2 min. The glycerol solution was then replaced by DMEM with 10% FBS. The cells were incubated overnight and the medium was replaced by DMEM/10% FBS containing 250 μg ml^−1 G418 and penicillin/streptomycin. The following day hygromycin B was added to a final concentration of 200 μg ml^−1.
Ten days after transfection, hygromycin B resistant clones were individually selected and transferred to a separate well on a 24 well plate. At confluence each clone was transferred to one well of a 6 well plate, and then expanded in a 10 cm dish. Cells were maintained under continuous hygromycin selection until use.

T1 sequence (P35408 whole entry): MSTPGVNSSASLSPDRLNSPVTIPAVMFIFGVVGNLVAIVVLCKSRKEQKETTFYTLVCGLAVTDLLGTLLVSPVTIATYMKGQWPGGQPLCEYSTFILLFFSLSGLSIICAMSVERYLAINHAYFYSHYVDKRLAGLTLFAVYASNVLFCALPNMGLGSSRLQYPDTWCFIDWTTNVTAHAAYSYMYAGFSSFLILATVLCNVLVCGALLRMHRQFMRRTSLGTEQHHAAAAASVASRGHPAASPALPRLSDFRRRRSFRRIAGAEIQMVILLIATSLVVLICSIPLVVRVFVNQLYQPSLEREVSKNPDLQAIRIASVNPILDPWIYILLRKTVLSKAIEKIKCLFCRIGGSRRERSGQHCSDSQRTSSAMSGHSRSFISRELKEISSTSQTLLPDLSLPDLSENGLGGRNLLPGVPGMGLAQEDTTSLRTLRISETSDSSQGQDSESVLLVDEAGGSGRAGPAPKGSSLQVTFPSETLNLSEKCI

For the molecule `O=C(O)CCCCCCN1C(=O)CC[C@@H]1CCC(O)Cc1cccc(Cl)c1` (stereo partly drawn) [Example 1, 7-[2S-[3R-Hydroxy-4-(chloro-phenyl)-butyl]-5-oxo-pyrrolidin-1-yl]-heptanoic acid], the pEC50 was 9.15.
